{"source": "patent US7973147B2", "about": "“K04-0144 substance and a process for production thereof” (The Kitasato Institute, priority 2006, dated 2011)", "key": {"silkworms": {"system": "silkworms", "experiment": "Toxicity against silkworms (substance only, no infection)", "format": "in vivo, silkworm", "conditions": "25 mg/kg, uninfected silkworms, 72 hours"}, "Solubility in solvent": {"experiment": "Solubility in solvent", "format": "physicochemical", "conditions": "listed as K04-0144A substance"}, "S. aureus ISP217": {"system": "S. aureus ISP217", "experiment": "MIC, agar plate dilution method", "format": "cell-based", "conditions": "Staphylococcus aureus; S. aureus ISP217; 37° C., 20 hours; read-out: MIC", "protocol": "(§1) Assay of minimum inhibitory concentration (MIC) was performed according to the agar plate dilution method (Method of Japan Society of Chemotherapy, CHEMOTHERAPY 29, 76-79, 1981).\n(§2) Test organisms used were 27 types of microorganisms including clinical isolates of methicillin-resistant Staphylococcus aureus. Each test organism was cultured in Mueller-Hinton broth (2.1% w/v) (DIFCO) at 37° C. for 20 hours, and the cultured cells were suspended to about 10^6 cell counts/ml in the same medium, then was used as the microbial suspension for inoculation. The prepared microbial suspension was smeared by using the microplanter on MHA medium (Mueller-Hinton broth 2.1% (w/v) and agar 1.5%) containing K04-0144A substance, K04-0144B substance or K04-0144C substance, each of which was subjected to two-fold stepwise dilution from 128 μg/ml. After culturing at 37° C. for 20 hours, MIC was determined by macroscopically confirming the growth of microorganisms. Vancomycin, arbekacin and linezolid were used as a comparative control."}, "P. aeruginosa E-2": {"system": "P. aeruginosa E-2", "experiment": "MIC, agar plate dilution method", "format": "cell-based", "conditions": "Pseudomonas aeruginosa, E2; P. aeruginosa E-2; 37° C., 20 hours; read-out: MIC", "protocol": "as §1, §2"}, "S. aureus Smith": {"system": "S. aureus Smith", "experiment": "MIC, agar plate dilution method", "format": "cell-based", "conditions": "Staphylococcus aureus; S. aureus Smith; 37° C., 20 hours; read-out: MIC", "protocol": "as §1, §2"}, "P. aeruginosa 46001": {"system": "P. aeruginosa 46001", "experiment": "MIC, agar plate dilution method", "format": "cell-based", "conditions": "Pseudomonas aeruginosa; P. aeruginosa 46001; 37° C., 20 hours; read-out: MIC", "protocol": "as §1, §2"}, "[1]": {"system": "E. faecium NTCT12203(VanA)", "experiment": "MIC, agar plate dilution method", "format": "cell-based", "conditions": "Enterococcus faecium; E. faecium NTCT12203(VanA); 37° C., 20 hours; read-out: MIC", "protocol": "as §1, §2"}, "M. morganii IID Kono": {"system": "M. morganii IID Kono", "experiment": "MIC, agar plate dilution method", "format": "cell-based", "conditions": "Morganella morganii; M. morganii IID Kono; 37° C., 20 hours; read-out: MIC", "protocol": "as §1, §2"}, "E. cloacae IFO13535": {"system": "E. cloacae IFO13535", "experiment": "MIC, agar plate dilution method", "format": "cell-based", "conditions": "Enterobacter cloacae; E. cloacae IFO13535; 37° C., 20 hours; read-out: MIC", "protocol": "as §1, §2"}, "S. aureus 8325(pEP2104)": {"system": "S. aureus 8325(pEP2104)", "experiment": "MIC, agar plate dilution method", "format": "cell-based", "conditions": "Staphylococcus aureus, 20 h", "protocol": "as §1, §2"}, "C. freundii ATCC8090": {"system": "C. freundii ATCC8090", "experiment": "MIC, agar plate dilution method", "format": "cell-based", "conditions": "Citrobacter freundii; C. freundii ATCC8090; 37° C., 20 hours; read-out: MIC", "protocol": "as §1, §2"}, "S. epidermidis IFO12648": {"system": "S. epidermidis IFO12648", "experiment": "MIC, agar plate dilution method", "format": "cell-based", "conditions": "Staphylococcus epidermidis; S. epidermidis IFO12648; 37° C., 20 hours; read-out: MIC", "protocol": "as §1, §2"}, "P. vulgaris OX-19": {"system": "P. vulgaris OX-19", "experiment": "MIC, agar plate dilution method", "format": "cell-based", "conditions": "Proteus vulgaris, OX19; P. vulgaris OX-19; 37° C., 20 hours; read-out: MIC", "protocol": "as §1, §2"}, "E. coli NIHJ JC-2": {"system": "E. coli NIHJ JC-2", "experiment": "MIC, agar plate dilution method", "format": "cell-based", "conditions": "Escherichia coli, NIHJJC2; E. coli NIHJ JC-2; 37° C., 20 hours; read-out: MIC", "protocol": "as §1, §2"}, "P. mirabilis IFO3849": {"system": "P. mirabilis IFO3849", "experiment": "MIC, agar plate dilution method", "format": "cell-based", "conditions": "Proteus mirabilis; P. mirabilis IFO3849; 37° C., 20 hours; read-out: MIC", "protocol": "as §1, §2"}, "S. aureus ISP447": {"system": "S. aureus ISP447", "experiment": "MIC, agar plate dilution method", "format": "cell-based", "conditions": "Staphylococcus aureus; S. aureus ISP447; 37° C., 20 hours; read-out: MIC", "protocol": "as §1, §2"}, "S. aureus FDA209P": {"system": "S. aureus FDA209P", "experiment": "MIC, agar plate dilution method", "format": "cell-based", "conditions": "Staphylococcus aureus; S. aureus FDA209P; 37° C., 20 hours; read-out: MIC", "protocol": "as §1, §2"}, "E. aerogenes NCTC10006": {"system": "E. aerogenes NCTC10006", "experiment": "MIC, agar plate dilution method", "format": "cell-based", "conditions": "Klebsiella aerogenes; E. aerogenes NCTC10006; 37° C., 20 hours; read-out: MIC", "protocol": "as §1, §2"}, "S. marcescens IFO12648": {"system": "S. marcescens IFO12648", "experiment": "MIC, agar plate dilution method", "format": "cell-based", "conditions": "Serratia marcescens; S. marcescens IFO12648; 37° C., 20 hours; read-out: MIC", "protocol": "as §1, §2"}, "M. luteus ATCC9341": {"system": "M. luteus ATCC9341", "experiment": "MIC, agar plate dilution method", "format": "cell-based", "conditions": "Micrococcus luteus; M. luteus ATCC9341; 37° C., 20 hours; read-out: MIC", "protocol": "as §1, §2"}, "[2]": {"system": "E. facecalis NTCT12201(VanA)", "experiment": "MIC, agar plate dilution method", "format": "cell-based", "conditions": "E. facecalis NTCT12201(VanA); 37° C., 20 hours; read-out: MIC", "protocol": "as §1, §2"}, "A. calcoaceticus IFO2552": {"system": "A. calcoaceticus IFO2552", "experiment": "MIC, agar plate dilution method", "format": "cell-based", "conditions": "Acinetobacter calcoaceticus; A. calcoaceticus IFO2552; 37° C., 20 hours; read-out: MIC", "protocol": "as §1, §2"}, "K. pneumoniae NCTN9632": {"system": "K. pneumoniae NCTN9632", "experiment": "MIC, agar plate dilution method", "format": "cell-based", "conditions": "Klebsiella pneumoniae; K. pneumoniae NCTN9632; 37° C., 20 hours; read-out: MIC", "protocol": "as §1, §2"}, "S. aureus 8325(pMS97)": {"system": "S. aureus 8325(pMS97)", "experiment": "MIC, agar plate dilution method", "format": "cell-based", "conditions": "Staphylococcus aureus, 20 h", "protocol": "as §1, §2"}, "E. faecalis ATCC21212": {"system": "E. faecalis ATCC21212", "experiment": "MIC, agar plate dilution method", "format": "cell-based", "conditions": "Enterococcus faecalis; E. faecalis ATCC21212; 37° C., 20 hours; read-out: MIC", "protocol": "as §1, §2"}, "MRSA 92-1191": {"system": "MRSA 92-1191", "experiment": "MIC, agar plate dilution method", "format": "cell-based, methicillin-resistant Staphylococcus aureus", "conditions": "Staphylococcus aureus; MRSA 92-1191; 37° C., 20 hours; read-out: MIC", "protocol": "as §1, §2"}, "MRSA N315 IR94 HR-1": {"system": "MRSA N315 IR94 HR-1", "experiment": "MIC, agar plate dilution method", "format": "cell-based, methicillin-resistant Staphylococcus aureus", "conditions": "Staphylococcus aureus, 20 h", "protocol": "as §1, §2"}, "MRSA 70": {"system": "MRSA 70", "experiment": "MIC, agar plate dilution method", "format": "cell-based, methicillin-resistant Staphylococcus aureus", "conditions": "Staphylococcus aureus; MRSA 70; 37° C., 20 hours; read-out: MIC", "protocol": "as §1, §2"}, "[3]": {"system": "clinical isolate of MRSA (K24 strain)", "experiment": "MRSA infectious model using silkworms", "format": "in vivo, silkworm", "conditions": "25 mg/kg into dorsal vessel; 72 hours after the inoculation; untreated infected silkworms all died within 72 hours", "protocol": "As an alternative method for in vivo MRSA infection model using animals, the infection system using silkworms has been reported (Kaito et al, Microbial Pathogenesis, 32: 183-190, 2002). Effect of K04-0144A substance was measured according to this method.\nTest organism used was the clinical isolate of MRSA (K24 strain). The MRSA was cultured statically using LB-10 medium (DIFCO) at 37° C. for 18 hours, and a 50 μl of the cultured strain was inoculated into the hemolymph of silkworm, 5 instar, 2nd day, (about 2 g, Ehime sansyu eggs Co., Japan). K04-0144A substance was prepared to a solution of 1 mg/ml, and 50 μl of the solution were administered by using syringe to the dorsal vessel of 5 silkworms infected with MRSA (25 mg/kg). Effect of the K04-0144A substance was evaluated by comparing the survival rate between a group with administering the sample and a group without administering the sample during the raising period of 72 hours after the inoculation. […] Further, all silkworms administered with 50 μl of MRSA bacterial suspension died within 72 hours after the inoculation."}}, "note": "Entries after “also recorded” stand apart in the source; their conditions may differ.", "data": [{"smiles": "C=C(C/C=C(\\C)CCC=C(C)C)CCC(C)(C)/C=C/CC/C(C)=C\\COC(COP(=O)(O)OC1OC(C(N)=O)C(C)(O)C(OC(N)=O)C1OC1OC(COC2OC(CO)C(O)C(O)C2O)C(OC2OC(C)C(OC3OC(C(=O)O)C(O)C(O)C3O)C(O)C2NC(C)=O)C(O)C1NC(C)=O)C(=O)O", "note": "(centres unmarked) [K04-0144A]", "values": [{"measurement": "toxicity against silkworms (survival, substance only)", "setting": "silkworms", "value": "no toxicity against silkworms"}, {"measurement": "Solubility in solvent", "setting": "Solubility in solvent", "value": "Soluble in methanol and water DMSO; also recorded: Insoluble in acetone, chloroform and hexane"}, {"measurement": "MIC", "setting": "S. aureus ISP217", "value": 0.25, "unit": "µg/mL"}, {"measurement": "MIC", "setting": "P. aeruginosa E-2", "value": "> 16", "unit": "µg/mL"}, {"measurement": "MIC", "setting": "S. aureus Smith", "value": 1, "unit": "µg/mL"}, {"measurement": "MIC", "setting": "P. aeruginosa 46001", "value": "> 16", "unit": "µg/mL"}, {"measurement": "MIC", "setting": "[1]", "value": "> 16", "unit": "µg/mL"}, {"measurement": "MIC", "setting": "M. morganii IID Kono", "value": "> 16", "unit": "µg/mL"}, {"measurement": "MIC", "setting": "E. cloacae IFO13535", "value": "> 16", "unit": "µg/mL"}, {"measurement": "MIC", "setting": "S. aureus 8325(pEP2104)", "value": 0.06, "unit": "µg/mL"}, {"measurement": "MIC", "setting": "C. freundii ATCC8090", "value": "> 16", "unit": "µg/mL"}, {"measurement": "MIC", "setting": "S. epidermidis IFO12648", "value": 4, "unit": "µg/mL"}, {"measurement": "MIC", "setting": "P. vulgaris OX-19", "value": "> 16", "unit": "µg/mL"}, {"measurement": "MIC", "setting": "E. coli NIHJ JC-2", "value": "> 16", "unit": "µg/mL"}, {"measurement": "MIC", "setting": "P. mirabilis IFO3849", "value": "> 16", "unit": "µg/mL"}, {"measurement": "MIC", "setting": "S. aureus ISP447", "value": 0.25, "unit": "µg/mL"}, {"measurement": "MIC", "setting": "S. aureus FDA209P", "value": 1, "unit": "µg/mL"}, {"measurement": "MIC", "setting": "E. aerogenes NCTC10006", "value": "> 16", "unit": "µg/mL"}, {"measurement": "MIC", "setting": "S. marcescens IFO12648", "value": "> 16", "unit": "µg/mL"}, {"measurement": "MIC", "setting": "M. luteus ATCC9341", "value": "> 16", "unit": "µg/mL"}, {"measurement": "MIC", "setting": "[2]", "value": 1, "unit": "µg/mL"}, {"measurement": "MIC", "setting": "A. calcoaceticus IFO2552", "value": 16, "unit": "µg/mL"}, {"measurement": "MIC", "setting": "K. pneumoniae NCTN9632", "value": "> 16", "unit": "µg/mL"}, {"measurement": "MIC", "setting": "S. aureus 8325(pMS97)", "value": 0.5, "unit": "µg/mL"}, {"measurement": "MIC", "setting": "E. faecalis ATCC21212", "value": 1, "unit": "µg/mL"}, {"measurement": "MIC", "setting": "MRSA 92-1191", "value": 0.25, "unit": "µg/mL"}, {"measurement": "MIC", "setting": "MRSA N315 IR94 HR-1", "value": 0.125, "unit": "µg/mL"}, {"measurement": "MIC", "setting": "MRSA 70", "value": 0.06, "unit": "µg/mL"}, {"measurement": "survival of silkworms infected with MRSA", "setting": "[3]", "value": "all survived after 72 hours of the inoculation"}]}]}
